Test results reported in article PMC8467576, “Novel Ubiquitin Specific Protease-13 Inhibitors Alleviate Neurodegenerative Pathology” (Metabolites, 2021).

Assays:
USP13 [1] = molecular target: T1, USP13 (Homo sapiens, UniProt Q92995); assay: USP13 activity via functional ELISA in alpha-synuclein transfected SH-SY5Y cells; type: cell-based; conditions: SH-SY5Y cells transfected with human alpha-synuclein, 5 h, read-out: Estimated IC50 to USP13
T1 construct: ELISA for USP13 (MyBioSource, Cat # MBS9335287, San Diego, CA, USA); endogenous in cells; host or cells: human SH-SY5Y neuroblastoma cells transfected with human wild-type alpha-synuclein
T1 sequence (Q92995 1-863): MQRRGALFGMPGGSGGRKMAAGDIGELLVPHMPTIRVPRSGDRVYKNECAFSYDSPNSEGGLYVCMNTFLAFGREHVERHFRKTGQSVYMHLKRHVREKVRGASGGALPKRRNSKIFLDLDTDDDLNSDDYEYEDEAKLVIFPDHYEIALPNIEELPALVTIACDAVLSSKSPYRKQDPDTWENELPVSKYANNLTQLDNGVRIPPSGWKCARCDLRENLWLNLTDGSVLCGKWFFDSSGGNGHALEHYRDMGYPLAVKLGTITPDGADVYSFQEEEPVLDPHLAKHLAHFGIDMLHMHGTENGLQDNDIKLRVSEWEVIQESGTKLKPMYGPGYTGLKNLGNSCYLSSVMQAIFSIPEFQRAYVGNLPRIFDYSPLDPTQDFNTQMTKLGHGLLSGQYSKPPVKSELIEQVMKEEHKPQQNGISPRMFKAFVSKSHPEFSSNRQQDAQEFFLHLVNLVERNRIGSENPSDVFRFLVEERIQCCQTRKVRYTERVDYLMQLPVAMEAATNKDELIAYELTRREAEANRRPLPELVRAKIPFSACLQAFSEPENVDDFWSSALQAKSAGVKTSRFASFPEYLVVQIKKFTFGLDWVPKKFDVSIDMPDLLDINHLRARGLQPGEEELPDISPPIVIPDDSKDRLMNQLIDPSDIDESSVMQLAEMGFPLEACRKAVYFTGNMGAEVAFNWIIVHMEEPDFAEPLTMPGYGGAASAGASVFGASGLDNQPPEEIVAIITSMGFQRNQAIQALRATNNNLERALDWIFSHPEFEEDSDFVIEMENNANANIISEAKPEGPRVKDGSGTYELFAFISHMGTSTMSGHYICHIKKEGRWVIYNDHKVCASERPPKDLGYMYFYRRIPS
Protocol: Stably transfected human neuroblastoma SH-SY5Y cells with human wild-type alpha-synuclein were treated with 1 mM, 100 µM, 10 µM, 1 µM, 0.1 µM, 0.01 µM and 0.001 µM of each of BK50118-A, BK50118-B, BK50118-C, CL3-499, CL3-512 and CL3-514 dissolved in an equivalent volume of DMSO for 5 h. […] The other 5 compounds were also able to lower alpha-synuclein levels but with less potency (Figure 3H,I,K–M).
(§1) SH-SY5Y cells were transiently transfected for 24 h with human wild-type α-synuclein using Fugene HD transfection reagent (Promega, E2311, Madison, WI, USA) according to manufacturer’s protocol. Cells were treated with 1 mM, 0.1 mM, 0.01 mM, 1 µM, 0.1 µM, 0.01 µM and 0.001 µM of each novel compounds (BK50118-A, BK50118-B, BK50118-C, CL3-499, CL3-512 and CL3-514) dissolved in DMSO for 5 h. Cells were then harvested on ice by removing culture medium and adding 0.2 mL 1x sodium-tris, EDTA, NP-40 (STEN) buffer (50 mM Tris (pH 7.6), 150 mM NaCl, 2 mM EDTA, 0.2 % NP-40, 0.2 % with Halt protease and phosphatase inhibitor solution (ThermoFisher, 78446). Cells were detached with a cell scraper and collected into centrifuge tubes and incubated at 4 °C for 30 min with agitation. Samples were stored at −80 °C and used for ELISA analyses. For cell viability assay, SHSY-5Y cells stably expressing human wild-type alpha-synuclein were treated with 1 mM, 0.1 mM, 0.01 mM, 1 µM, 0.1 µM, 0.01 µM and 0.001 µM of each novel compound (BK50118-A, BK50118-B, BK50118-C, CL3-499, CL3-512 and CL3-514) dissolved in DMSO for 5 h. Cell viability was determined via lactate dehydrogenase assay on culture media (Thermofisher, 88954) and MTT assay on plated cells (Thermofisher, V13154).
The ELISA for USP13 (MyBioSource, Cat # MBS9335287, San Diego, CA, USA), Human alpha-synuclein (Biolegend, Cat # 844101, San Diego, CA, USA) and specific p-Tau ser396 (Invitrogen, KHB7031, Waltham, MA, USA) were performed on cell or brain tissue extracts as described above according to manufacturers’ protocol.
All statistical analyses were performed using GraphPad Prism version 5.0 (GraphPad software, Inc, San Diego, CA, USA). Two-tailed student’s t-test was used in comparison of means of two groups. Ordinary one-way analysis of variance (ANOVA) followed by Newman–Keuls or Dunnett comparison post hoc tests were used in comparison of means of multiple groups. Asterisks denote actual p-value significances (* < 0.05, ** < 0.01, *** < 0.001 and **** < 0.0001), and N is the number of animals or the number of independent experiments (cell culture) per group. Unless otherwise indicated, data are expressed as Mean ± SD. IC50 to USP13 levels was also estimated using GraphPad Prism version 5.0 (GraphPad software, Inc, San Diego, CA, USA).

[2] = test system: SH-SY5Y human neuroblastoma cells; assay: LDH and MTT cell viability assays; type: cell-based; conditions: 5 h; for concentration near and above which cell viability decreased: compared to DMSO or untreated controls; for cell toxicity: range of concentrations studied (0.001 µM to 1 mM)
Protocol: BK50118-B and BK50118-C (Figure 2C,D) decreased cell viability near and above 100 μM compared to DMSO or untreated controls. CL3-499 (Figure 2G) decreased cell viability near and above 1 mM compared to DMSO or untreated controls.
as §1

[3] = set-up: method as in PMID 21962518; conditions: cited from earlier work
USP13 [4] = test system: USP13; set-up: method as in PMID 21962518; conditions: cited from earlier work
USP10 = test system: USP10; set-up: method as in PMID 21962518; conditions: cited from earlier work

| Compound | IC50 (USP13 [1]) [nM] | concentration near and above which cell viability decreased [2] [µM] | cell toxicity [2] | blood-brain barrier (BBB) penetration [3] | IC50 (USP13 [4]) [nM] | IC50 (USP10) [nM] |
| --- | --- | --- | --- | --- | --- | --- |
| COC(=O)[C@H](Cc1ccc(O)cc1)Nc1c([N+](=O)[O-])c(=O)oc2ccccc12 [CL3-514, (S)-methyl (3-nitro-2-oxo-2H-chromen-4-yl)-tyrosinate] | 0.61 | – | did not show cell toxicity | – | – | – |
| Fc1ccc(CNc2ncnc3ccc(F)cc23)cc1 [Spautin-1] | – | – | – | does not cross the blood–brain barrier (BBB) | 600 to 700 | 600 to 700 |

More lines, main results first:

| IC50 (USP13 [1]) [nM] | Compound | concentration near and above which cell viability decreased [2] [µM] | cell toxicity [2] | blood-brain barrier (BBB) penetration [3] | IC50 (USP13 [4]) [nM] | IC50 (USP10) [nM] |
| --- | --- | --- | --- | --- | --- | --- |
| 0.11 | c1ccc(Nc2ccnc3ccsc23)cc1 [BK50118-A, N-phenylthieno[3,2-b]pyridin-7-amine] | ≥ 0.1 | – | – | – | – |
| 2.13 | Fc1ccc2nccc(Nc3ccccc3)c2c1 [BK50118-B, 6-fluoro-N-phenylquinolin-4-amine] | ≥ 100 | – | – | – | – |
| 0.29 | Fc1ccc2nccc(NCc3ccccc3)c2c1 [CL3-499, N-benzyl-6-fluoroquinolin-4-amine] | ≥ 1000 | – | – | – | – |
| 0.27 | COC(=O)[C@H](Cc1ccccc1)Nc1c([N+](=O)[O-])c(=O)oc2ccccc12 [CL3-512, (S)-methyl (3-nitro-2-oxo-2H-chromen-4-yl)-phenylalaninate] | – | did not show cell toxicity | – | – | – |
